Experimental data published in PMC7587597, “Synthesis and Biological Evaluation of 1,3-Dideazapurine-Like 7-Amino-5-Hydroxymethyl-Benzimidazole Ribonucleoside Analogues as Aminoacyl-tRNA Synthetase Inhibitors” (Molecules, 2020).

How the values were obtained:
LeuRS [1] = target: T1, LeuRS (Escherichia coli, UniProt P07813); assay: radiolabel aminoacyl transfer assay with purified enzyme (Kiapp); type: biochemical
T1 construct: gene leuS

LeuRS [2] = target: T2, LeuRS (Neisseria gonorrhoeae, UniProt B4RNT1); assay: X-ray crystal structure ([…] Å), soaked crystals; type: binding
T2 construct: gene leuS

IleRS = target: T3, IleRS (Escherichia coli, UniProt P00956); assay: radiolabel aminoacyl transfer assay with purified enzyme (Kiapp); type: biochemical
T3 construct: gene ileS

TyrRS = target: T4, TyrRS (Escherichia coli, UniProt P0AGJ9); assay: ([…] Å); radiolabel aminoacylation inhibition (Kiapp); type: biochemical
T4 construct: gene tyrS

SerRS [3] = target: T5, SerRS (Klebsiella pneumoniae, UniProt W9BNU9); assay: X-ray crystal structure ([…] Å), soaked crystals; type: binding
T5 construct: gene serS

SerRS [4] = target: T6, SerRS (Escherichia coli, UniProt P0A8L1); assay: radiolabel aminoacyl transfer assay, % inhibition at […]; type: biochemical
T6 construct: gene serS

AspRS = target: T7, AspRS (Thermus thermophilus, UniProt Q5SKD2); assay: X-ray crystal structure ([…] Å), soaked crystals; type: binding
T7 construct: gene aspS1
T7 sequence (Q5SKD2 whole entry): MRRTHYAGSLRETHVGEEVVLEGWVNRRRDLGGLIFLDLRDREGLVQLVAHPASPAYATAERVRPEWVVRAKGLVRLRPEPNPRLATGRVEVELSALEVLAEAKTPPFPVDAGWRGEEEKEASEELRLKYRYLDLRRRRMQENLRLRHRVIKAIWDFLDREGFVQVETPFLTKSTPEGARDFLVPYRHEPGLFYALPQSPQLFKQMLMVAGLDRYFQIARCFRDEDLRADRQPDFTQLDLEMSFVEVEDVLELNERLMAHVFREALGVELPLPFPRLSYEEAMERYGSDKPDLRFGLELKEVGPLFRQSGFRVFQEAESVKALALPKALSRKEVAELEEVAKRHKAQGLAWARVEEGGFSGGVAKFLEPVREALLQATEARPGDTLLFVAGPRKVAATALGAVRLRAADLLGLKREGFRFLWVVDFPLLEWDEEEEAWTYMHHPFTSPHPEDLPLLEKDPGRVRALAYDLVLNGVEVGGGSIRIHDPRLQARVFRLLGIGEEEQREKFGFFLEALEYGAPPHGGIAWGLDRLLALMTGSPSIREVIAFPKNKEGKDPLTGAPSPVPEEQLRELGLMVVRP

T4 sequence (P0AGJ9 2-424): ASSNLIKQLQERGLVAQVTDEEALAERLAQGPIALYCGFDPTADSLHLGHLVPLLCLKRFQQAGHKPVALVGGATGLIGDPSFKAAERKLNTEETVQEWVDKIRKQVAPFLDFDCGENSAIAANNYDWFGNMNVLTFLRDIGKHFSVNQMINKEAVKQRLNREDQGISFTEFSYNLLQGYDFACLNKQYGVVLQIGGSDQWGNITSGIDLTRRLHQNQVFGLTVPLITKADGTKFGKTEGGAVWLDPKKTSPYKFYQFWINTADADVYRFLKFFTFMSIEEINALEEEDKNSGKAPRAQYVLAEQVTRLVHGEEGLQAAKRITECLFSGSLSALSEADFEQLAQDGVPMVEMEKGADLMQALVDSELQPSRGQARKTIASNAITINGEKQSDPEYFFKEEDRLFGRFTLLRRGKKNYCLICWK
T3 sequence (P00956 2-938): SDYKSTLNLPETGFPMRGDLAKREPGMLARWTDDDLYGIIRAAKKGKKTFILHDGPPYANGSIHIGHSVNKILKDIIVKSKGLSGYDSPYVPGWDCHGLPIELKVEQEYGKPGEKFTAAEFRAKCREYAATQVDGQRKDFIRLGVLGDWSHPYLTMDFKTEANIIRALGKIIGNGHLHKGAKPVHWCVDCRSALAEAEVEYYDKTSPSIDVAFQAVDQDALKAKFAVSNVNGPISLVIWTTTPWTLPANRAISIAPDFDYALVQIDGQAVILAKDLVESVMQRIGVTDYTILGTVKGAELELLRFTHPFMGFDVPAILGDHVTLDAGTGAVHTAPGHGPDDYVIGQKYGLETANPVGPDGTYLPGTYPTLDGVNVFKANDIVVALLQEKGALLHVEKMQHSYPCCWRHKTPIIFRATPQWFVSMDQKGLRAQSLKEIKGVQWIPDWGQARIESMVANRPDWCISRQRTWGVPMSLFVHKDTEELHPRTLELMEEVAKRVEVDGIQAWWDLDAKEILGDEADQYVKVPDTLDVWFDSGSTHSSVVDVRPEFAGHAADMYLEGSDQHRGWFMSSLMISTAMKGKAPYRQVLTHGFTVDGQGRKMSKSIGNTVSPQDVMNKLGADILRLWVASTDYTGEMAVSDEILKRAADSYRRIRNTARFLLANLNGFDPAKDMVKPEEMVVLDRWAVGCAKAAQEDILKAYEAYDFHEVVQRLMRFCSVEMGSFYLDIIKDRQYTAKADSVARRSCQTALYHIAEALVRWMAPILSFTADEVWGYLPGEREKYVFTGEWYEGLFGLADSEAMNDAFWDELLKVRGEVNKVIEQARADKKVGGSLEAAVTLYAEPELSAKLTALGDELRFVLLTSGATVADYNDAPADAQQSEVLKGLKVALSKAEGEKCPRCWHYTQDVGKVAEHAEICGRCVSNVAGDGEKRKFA
T6 sequence (P0A8L1 whole entry): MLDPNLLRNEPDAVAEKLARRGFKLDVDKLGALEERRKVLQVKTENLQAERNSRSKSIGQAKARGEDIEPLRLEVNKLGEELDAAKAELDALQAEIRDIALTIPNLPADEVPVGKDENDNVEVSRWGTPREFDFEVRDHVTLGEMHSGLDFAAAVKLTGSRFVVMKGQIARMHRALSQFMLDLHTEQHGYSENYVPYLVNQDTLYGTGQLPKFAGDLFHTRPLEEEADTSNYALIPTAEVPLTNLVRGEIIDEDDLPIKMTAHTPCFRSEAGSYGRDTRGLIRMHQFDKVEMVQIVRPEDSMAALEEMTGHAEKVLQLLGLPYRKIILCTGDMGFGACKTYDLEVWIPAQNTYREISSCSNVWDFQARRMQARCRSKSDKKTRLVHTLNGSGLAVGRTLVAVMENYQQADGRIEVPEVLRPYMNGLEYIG
T2 sequence (B4RNT1 whole entry): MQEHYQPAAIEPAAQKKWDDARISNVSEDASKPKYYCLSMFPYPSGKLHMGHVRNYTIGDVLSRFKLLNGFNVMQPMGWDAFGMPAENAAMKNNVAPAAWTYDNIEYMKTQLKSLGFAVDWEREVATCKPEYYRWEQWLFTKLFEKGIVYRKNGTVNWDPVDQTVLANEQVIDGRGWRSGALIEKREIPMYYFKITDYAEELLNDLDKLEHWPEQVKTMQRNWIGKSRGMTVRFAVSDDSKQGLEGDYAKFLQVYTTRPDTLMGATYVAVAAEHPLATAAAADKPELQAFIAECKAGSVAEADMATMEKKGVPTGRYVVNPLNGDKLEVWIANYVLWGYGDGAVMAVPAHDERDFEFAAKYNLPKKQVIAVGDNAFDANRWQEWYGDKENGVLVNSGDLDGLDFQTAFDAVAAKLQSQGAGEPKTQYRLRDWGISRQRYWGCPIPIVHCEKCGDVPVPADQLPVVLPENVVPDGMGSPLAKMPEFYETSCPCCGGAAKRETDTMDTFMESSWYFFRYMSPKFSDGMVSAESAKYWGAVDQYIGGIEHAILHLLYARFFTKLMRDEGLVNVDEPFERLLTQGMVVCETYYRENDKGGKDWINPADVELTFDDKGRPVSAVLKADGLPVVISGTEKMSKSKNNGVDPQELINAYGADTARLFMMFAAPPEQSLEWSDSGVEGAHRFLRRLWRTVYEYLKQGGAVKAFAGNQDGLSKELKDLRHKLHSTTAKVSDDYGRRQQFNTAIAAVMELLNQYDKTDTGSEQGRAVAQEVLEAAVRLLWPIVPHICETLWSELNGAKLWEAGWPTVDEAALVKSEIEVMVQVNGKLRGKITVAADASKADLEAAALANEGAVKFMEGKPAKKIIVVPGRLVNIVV
T1 sequence (P07813 whole entry): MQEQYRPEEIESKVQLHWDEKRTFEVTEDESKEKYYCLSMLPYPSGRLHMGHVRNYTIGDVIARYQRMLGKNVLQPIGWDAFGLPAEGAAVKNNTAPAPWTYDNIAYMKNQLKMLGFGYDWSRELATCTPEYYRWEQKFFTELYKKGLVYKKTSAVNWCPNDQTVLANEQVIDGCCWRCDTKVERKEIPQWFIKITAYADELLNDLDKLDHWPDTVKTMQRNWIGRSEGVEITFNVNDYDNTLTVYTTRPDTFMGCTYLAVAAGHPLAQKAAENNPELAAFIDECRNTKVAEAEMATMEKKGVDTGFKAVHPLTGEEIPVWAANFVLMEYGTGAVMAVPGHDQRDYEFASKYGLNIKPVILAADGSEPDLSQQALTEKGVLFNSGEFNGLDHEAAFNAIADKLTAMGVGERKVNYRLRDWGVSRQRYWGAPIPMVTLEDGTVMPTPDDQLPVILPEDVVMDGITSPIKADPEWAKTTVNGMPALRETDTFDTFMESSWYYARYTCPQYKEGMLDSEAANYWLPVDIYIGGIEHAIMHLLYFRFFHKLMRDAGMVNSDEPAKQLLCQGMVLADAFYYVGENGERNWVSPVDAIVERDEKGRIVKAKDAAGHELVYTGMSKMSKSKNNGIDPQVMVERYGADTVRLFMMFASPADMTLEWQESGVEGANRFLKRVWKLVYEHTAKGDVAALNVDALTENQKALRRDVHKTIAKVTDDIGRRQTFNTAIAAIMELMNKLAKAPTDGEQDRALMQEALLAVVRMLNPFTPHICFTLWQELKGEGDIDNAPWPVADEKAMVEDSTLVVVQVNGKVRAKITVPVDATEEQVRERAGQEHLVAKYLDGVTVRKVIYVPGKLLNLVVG
T5 sequence (W9BNU9 1-430): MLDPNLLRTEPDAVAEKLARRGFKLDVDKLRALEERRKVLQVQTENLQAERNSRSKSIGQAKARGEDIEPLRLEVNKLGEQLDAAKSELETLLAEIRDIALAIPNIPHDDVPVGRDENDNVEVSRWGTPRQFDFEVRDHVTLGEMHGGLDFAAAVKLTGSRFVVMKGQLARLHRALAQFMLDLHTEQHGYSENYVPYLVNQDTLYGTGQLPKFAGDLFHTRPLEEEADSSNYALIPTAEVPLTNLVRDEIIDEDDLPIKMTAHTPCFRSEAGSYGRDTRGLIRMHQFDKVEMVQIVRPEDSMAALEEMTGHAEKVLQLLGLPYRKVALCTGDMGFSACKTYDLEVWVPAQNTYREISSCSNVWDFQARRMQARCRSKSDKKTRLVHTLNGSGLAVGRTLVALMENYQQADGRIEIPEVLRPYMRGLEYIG

## CC(C)C[C@H](N)C(=O)NS(=O)(=O)OC[C@H]1O[C@@H](n2cnc3cc(CO)cc(N)c32)C(O)[C@@H]1O (stereo in doubt) [32e, (2R,3S,4S,5R)-(5-(7-Amino-5-(Hydroxymethyl)-1H-Benzo[d]imidazol-1-yl)-3,4-Dihydroxytetrahydrofuran-2-yl)methyl Leucylsulfamate]
LeuRS [1]
  Ki: 21.5 ± 1.2 nM
LeuRS [2]
  X-ray crystal structure (2.25 Å), soaked crystals: N. gonorrhoeae LeuRS in complex with LeuS7HMDDA

## CC[C@H](C)[C@H](N)C(=O)NS(=O)(=O)OC[C@H]1O[C@@H](n2cnc3cc(CO)cc(N)c32)[C@@H](O)[C@@H]1O [32f, (2R,3S,4S,5R)-(5-(7-Amino-5-(Hydroxymethyl)-1H-Benzo[d]imidazol-1-yl)-3,4-Dihydroxytetrahydrofuran-2-yl)methyl Isoleucylsulfamate]
IleRS
  Ki: 10.8 ± 0.8 nM

## Nc1cc(CO)cc2ncn([C@@H]3O[C@H](COS(=O)(=O)NC(=O)[C@@H](N)Cc4ccc(O)cc4)[C@@H](O)C3O)c12 (stereo in doubt) [32b, (2R,3S,4S,5R)-(5-(7-Amino-5-(Hydroxymethyl)-1H-Benzo[d]imidazol-1-yl)-3,4-Dihydroxytetrahydrofuran-2-yl)methyl Tyrosylsulfamate]
TyrRS
  Ki: 1230 ± 239 nM

## Nc1cc(CO)cc2ncn([C@@H]3O[C@H](COS(=O)(=O)NC(=O)[C@@H](N)CO)[C@@H](O)C3O)c12 (stereo in doubt) [32c, (2R,3S,4S,5R)-(5-(7-Amino-5-(Hydroxymethyl)-1H-Benzo[d]imidazol-1-yl)-3,4-Dihydroxytetrahydrofuran-2-yl)methyl Serylsulfamate]
SerRS [3]
  X-ray crystal structure (2.18 Å), soaked crystals: K. pneumoniae SerRS in complex with SerS7HMDDA
SerRS [4]
  inhibition at 200 µM: 54%

## Nc1cc(CO)cc2ncn([C@@H]3O[C@H](COS(=O)(=O)NC(=O)[C@@H](N)CC(=O)O)[C@@H](O)[C@H]3O)c12 [32d, 3-Amino-4-((((5-(7-Amino-5-(Hydroxymethyl)-1H-Benzo[d]imidazol-1-yl)-3,4-Dihydroxytetrahydrofuran-2-yl)methoxy)sulfonyl)amino)-4-Oxobutanoic Acid]
AspRS
  X-ray crystal structure (2.15 Å), soaked crystals: T. thermophilus AspRS in complex with AspS7HMDDA
